≈ marks a conversion by molar mass, not a printed value. Where “and” joins values, the source holds several entries; their conditions need not be identical. Identical values can stand only once. Like-named read-outs stand apart in the source and are kept apart here.
Legend:
Format in all cases: cell-based
[1] = tested on: clinical strains of Staphylococcus aureus; experiment: MIC of cloxacillin by growth (absorbance) in 96-well microplates, brain heart infusion (BHI) medium
Procedure: (§1) The determination of each minimum inhibitory concentration (MIC) of cloxacillin was measured conventionally by measuring the growth of each strain in 96-well microplates in the presence of concentrations of antibiotic by absorbance.
The MIC was measured in Mueller-Hinton medium (MH; reference medium for antibiotic susceptibility testing) and brain heart infusion (BHI) medium.

[2] = tested on: clinical strains of Staphylococcus aureus; experiment: Antibiofilmogram / BioFilm Ring Test: biofilm minimum inhibitory concentration (MICb); conditions: for MIC: Staphylococcus aureus; for MIC / MIC b: 4 h, BHI medium
Procedure: To determine and measure the effect of cloxacillin on biofilm formation, specifically bacterial adhesion, the first step in biofilm formation, Staphylococcus aureus strains S14 and S39 were incubated in the wells of a 96-well microplate in the presence of varying concentrations of cloxacillin. The concentrations tested ranged from 0.25 μg/mL to 32 μg/mL cloxacillin. This test is called, by BioFilm Control, an Antibiofilmogram®. The inoculum of bacteria was 4·10^6 bacteria/mL, in 200 μL brain heart infusion (BHI) medium, in the presence of magnetic microbeads (Toner 4, product code TON004) at a concentration of 2 μL per 200 μL, i.e. 10 μL/mL).
The microplate was incubated for 4 hat 37° C., then covered with 120 μL of contrast liquid (Contrast liquid; product code LIC001) and placed for 1 minute on a magnet block (product code BKTMB) designed so that each mini-magnet is centered with respect to the 96 wells. The microplate was then placed on a scanner and the image was acquired and analyzed by the BFCE3 software which quantifies the aggregation of the magnetic microbeads in the center of the wells and provides a biofilm formation index (BFI) value. A BFI value of 20, or close to 20 corresponds to maximum aggregation, therefore no biofilm formation, and therefore cloxacillin anti-adhesion efficacy. […] All intermediate values, allowing a quantitative measurement of the efficacy of cloxacillin are possible.
The experimental procedure and protocol were as described above.
The measurement of the MICb (determination of the biofilm minimum inhibitory concentration), using the BioFilm Ring ^Test® was performed in BHI medium. The conversion in mg/kg. The results are summarized in Table 1 according to the strains tested.

[3] = tested on: Staphylococcus aureus strains S14 and S39; experiment: MIC of cloxacillin (medium not stated); conditions: for MIC: Staphylococcus aureus
Procedure: as §1

Cc1onc(-c2ccccc2Cl)c1C(=O)N[C@@H]1C(=O)N2[C@@H]1SC(C)(C)[C@@H]2C(=O)O [cloxacillin]
MIC ([1]; strain S02): 0.25 µg/mL | MIC ([1]; strain S04): 0.5 µg/mL | MIC ([1]; strain S08): 0.5 µg/mL | MIC ([1]; strain S11): 0.5 µg/mL | MIC ([1]; strain S14): 0.25 µg/mL | MIC ([1]; strain S16): 0.5 µg/mL | MIC ([1]; strain S19): 0.5 µg/mL | MIC ([1]; strain S21): 0.5 µg/mL | MIC ([1]; strain S22): 0.5 µg/mL | MIC ([1]; strain S26): 0.25 µg/mL | MIC ([1]; strain S27): 0.25 µg/mL | MIC ([1]; strain S31): 0.5 µg/mL | MIC ([1]; strain S34): 0.5 µg/mL | MIC ([1]; strain S38): 0.5 µg/mL | MIC ([1]; strain S39): 0.125 µg/mL | MIC ([1]; strain S40): 0.5 µg/mL | MIC ([1]; strain S43): 0.25 µg/mL | MIC ([1]; strain S44): 0.5 µg/mL | MIC ([1]; strain S46): 0.125 µg/mL | MIC ([1]; strain S47): 0.25 µg/mL | MIC ([1]; strain S51): 0.25 µg/mL | MIC ([1]; strain S58): 0.25 µg/mL | MIC ([1]; strain S62): 0.5 µg/mL | MIC ([1]; strain S63): 0.25 µg/mL | MIC ([1]; strain S74): 0.25 µg/mL | MIC ([1]; strain S83): 0.125 µg/mL | MIC ([2]; strain S02): 2 µg/mL (≈ 4.59 µM) | MIC ([2]; strain S04): 4 µg/mL (≈ 9.18 µM) | MIC ([2]; strain S08): 2 µg/mL (≈ 4.59 µM) | MIC ([2]; strain S11): 4 µg/mL (≈ 9.18 µM) | MIC ([2]; strain S14): 2 µg/mL (≈ 4.59 µM) | MIC ([2]; strain S16): 4 µg/mL (≈ 9.18 µM) | MIC ([2]; strain S19): 2 µg/mL (≈ 4.59 µM) | MIC ([2]; strain S21): 4 µg/mL (≈ 9.18 µM) | MIC ([2]; strain S22): 4 µg/mL (≈ 9.18 µM) | MIC ([2]; strain S26): 4 µg/mL (≈ 9.18 µM) | MIC ([2]; strain S27): 4 µg/mL (≈ 9.18 µM) | MIC ([2]; strain S31): 4 µg/mL (≈ 9.18 µM) | MIC ([2]; strain S34): 8 µg/mL (≈ 18.4 µM) | MIC ([2]; strain S38): 16 µg/mL (≈ 36.7 µM) | MIC ([2]; strain S39): 8 µg/mL (≈ 18.4 µM) | MIC ([2]; strain S40): 4 µg/mL (≈ 9.18 µM) | MIC ([2]; strain S43): 4 µg/mL (≈ 9.18 µM) | MIC ([2]; strain S44): 4 µg/mL (≈ 9.18 µM) | MIC ([2]; strain S46): 2 µg/mL (≈ 4.59 µM) | MIC ([2]; strain S47): 2 µg/mL (≈ 4.59 µM) | MIC ([2]; strain S51): 4 µg/mL (≈ 9.18 µM) | MIC ([2]; strain S58): 16 µg/mL (≈ 36.7 µM) | MIC ([2]; strain S62): 8 µg/mL (≈ 18.4 µM) | MIC ([2]; strain S63): 8 µg/mL (≈ 18.4 µM) | MIC ([2]; strain S74): 4 µg/mL (≈ 9.18 µM) | MIC ([2]; strain S83): 16 µg/mL (≈ 36.7 µM) | mean MICb ([2]; panel of 26 strains, standard deviation 4.2 μg/mL): 5.5 µg/mL | MIC b ([2]; strain S02): 2 µg/mL (≈ 4.59 µM) | MIC b ([2]; strain S14): 2 µg/mL (≈ 4.59 µM) | MIC b ([2]; strain S38): 16 µg/mL (≈ 36.7 µM) | MIC b ([2]; strain S39): 6 µg/mL and 4 to 6 µg/mL and 4 µg/mL | MIC b ([2]; strain S58): 16 µg/mL (≈ 36.7 µM) | MIC b ([2]; strain S83): 16 µg/mL (≈ 36.7 µM) | MIC ([3]; strain S14, read-out: minimum inhibitory concentration (MIC)): 0.25 µg/mL | MIC ([3]; strain S39, read-out: minimum inhibitory concentration (MIC)): 0.125 µg/mL | minimum inhibitory concentration (MIC) ([3]; strain S14): 0.125 µg/mL | minimum inhibitory concentration (MIC) ([3]; strain S39): 0.25 µg/mL

From patent US20200237731A1, “USE OF CLOXACILLIN TO INHIBIT/PREVENT BIOFILM FORMATION” (priority 2017, published 2020)
